# Results as given in PubChem BioAssay (NCI).
#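 Each compound was tested at five concentrations against cells in 96-well plates for 48 hours. TGI: total growth inhibition.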
# Test system: SN12K1 renal
# Assay: DTP human tumour cell line panel, 48 h
row,Structure (SMILES),TGI [µM]
1,COC1/C=C/O[C@@]2(C)Oc3c(C)c(O)c4c(O)c(cc(O)c4c3C2=O)NC(=O)/C(C)=C\C=C\[C@H](C)C(O)[C@@H](C)[C@@H](O)[C@@H](C)[C@H](OC(C)=O)[C@@H]1C (some centres not stated),33.5
2,O=C(Cn1ccnc1[N+](=O)[O-])N(CCO)CCO,> 1250
